Experimental data taken from paper PMC2994807 (Biochemistry, 2010).

Columns and labels:
[1] = biological target: dialkylglycine decarboxylase (DGD); WT DGD (Burkholderia cepacia, UniProt P16932, W138F); experiment: biochemical
[2] = biological target: dialkylglycine decarboxylase (DGD); WT DGD (Burkholderia cepacia, UniProt P16932, M141R/W138F); experiment: biochemical

`N[C@@H](C(=O)O)c1ccccc1` [D-phenylglycine] was tested, and the Ki [1] was 50 mM.

Work on `N[C@H](CCC(=O)O)C(=O)O` [D-glutamate] yielded a Ki [2] of 89 mM.
